In patent publication US20090022806A1, “Nanoparticle and polymer formulations for thyroid hormone analogs, antagonists and formulations and uses thereof” (priority 2006, published 2009):
≈ marks a conversion by molar mass, not a printed value.

Experiments:
Solubility = type: physicochemical; details: in water after preparing a solution at 10^−1 M in DMSO
Protocol: Yield: 50%; off-white solid; recrist. solvt.: EtOH; TLC: Rf=0.43 (EtOAc/EtOH 9/1); RPTLC: Rf=0.43 (AcOH/H2O 8/2); mp=136° C.; IR (ν cm^−1): 1730 (CO); ^1H NMR (DMSO-d6) δ (ppm): 7.79 (s, 2H, ArH), 7.14 (s, 2H, ArH), 4.06-4.02 (m, 2H, CH2), 3.93-3.89 (q, J=7.0 Hz, 2H, CH2), 3.59-3.56 (t, J=7.0 Hz, 1H, CH), 2.80-2.77 (m, 2H, CH2), 1.88 (br, 1H, NH), 1.41-1.39 (t, J=7.0 Hz, 3H, CH3), 1.15-1.12 (t, J=7.0 Hz, 3H, CH3); MS (ESI+) m/z 911.7 [(M+DMSO)^+, 100], 833.7 [(M+H)+, 75]; Anal. Calcd. for C19H19I4NO4: C, 27.40; H, 2.30; N, 1.68. Found: C, 27.54; H, 1.94; N, 1.66. Solubility 10^−3 M in water after preparing a solution at 10^−1 M in DMSO. It is noteworthy that if a suspension of L-T4 is prepared overnight, the yield can be increased.

[1] = Doxorubicin-resistant tumor xenograft in nude mice; details: CD1 nude, mouse, in vivo
Protocol: (§1) Strain CD1 nude mice were obtained from Charles River Laboratories (Wilmington, Mass.) at approximately 5-6 weeks of age and weighing approximately 30 g. Animals received s.c. implantation of doxorubicin-resistant MCF7/R cells (10^6 cells in 100 μl). When tumors were approximately 50 mm^3 in size, the animals were pair matched and divided into four groups of five mice as follows: a) vehicle treated controls, b) mice treated with tetrac (30 mg/kg), c) mice treated doxorubicin (2 mg/kg), d) mice treated with the combination of both drugs. A total of three injections (separated by 3 days) were performed. Mice were weighed, checked for clinical signs of drug toxicity and lethality. Tumor measurements were made with a caliper three times weekly for up to 3 weeks and converted to tumor volume by using the formula W×L^2/2. Tumor growth curves were generated.

[2] = tested on: doxorubicin-resistant MCF7/R cells; experiment: Doxorubicin-resistant tumor xenograft in nude mice; details: doxorubicin alone 2 mg/kg, three injections
Protocol: as §1

NG108-15 cells = experiment: cells; details: Homo sapiens, NG108-15, read-out: Half maximal inhibition of cell-cell adhesion
[3] = tested on: EC migration toward the extracellular matrix protein vitronectin; experiment: Cellular migration assay toward vitronectin (chemotaxis chamber); type: cell-based; details: Vitronectin 25 ug in lower chamber alone
Protocol: These assays were performed using a Neuroprobe 96 well disposable chemotaxis chamber with an 8 μm pore size. This chamber allowed for quantitation of cellular migration towards a gradient of either vitronectin or osteopontin. Cultured cells were removed following a standardized method using EDTA/Trypsin (0.01%/0.025%). Following removal, the cells were washed twice and resuspended (2×10^6/ml) in EBM (Endothelial cell basal media, Clonetics Inc.). Add either vitronectin or osteopontin (33 μl) at 0.0125-100 μg/ml to the lower wells of a disposable chemotaxis chamber, and then assemble using the preframed filter. The cell suspension (45 μl) was added to a polypropylene plate containing 5 μl of test agent at different concentrations and incubated for 10 minutes at 22° C. Add 25 μl of cell/test agent suspension to the upper filter wells then incubate overnight (22 hours at 37° C.) in a humidified cell culture incubator. After the overnight incubation, non-migrated cells and excess media were gently removed using a 12 channel pipette and a cell scraper. The filters were then washed twice in PBS (no Ca^+2 or Mg^+2) and fixed with 1% formaldehyde. Membranes of migrated cells were permeated with Triton X-100 (0.2%) then washed 2-3 times with PBS. […] Chemotaxis was quantitatively determined by fluorescence detection using a Cytofluor II (530 excitation/590 emission).

Work on CC(C)(C)OC(=O)NC(Cc1cc(I)c(Oc2cc(I)c(O)c(I)c2)c(I)c1)C(=O)O (stereo not drawn) [PRIAB1, 2-[(tert-butoxycarbonyl)amino]-3-[4-(4-hydroxy-3,5-diiodophenoxy)-3,5-diiodophenyl]propanoic acid] yielded a melting point of 212 °C.

In the case of CCNC(Cc1cc(I)c(Oc2cc(I)c(O)c(I)c2)c(I)c1)C(=O)OCC (stereo not drawn) [PRIAB20, ethyl-2-(ethylamino)-3-[4-(4-hydroxy-3,5-diiodophenoxy)-3,5-diiodophenyl]propanoate], the solubility (Solubility) is reported as 1000 µM (≈ 833 µg/mL).

For COc1cccc2c1C(=O)c1c(O)c3c(c(O)c1C2=O)C[C@@](O)(C(=O)CO)C[C@@H]3O[C@H]1C[C@H](N)[C@H](O)[C@H](C)O1 [doxorubicin], the MTD [1] was 2.5 mg/kg and the “effect on tumor growth” value [2] was “no noticeable effect”.

Molecule CCO [ethanol] has an IC50 (NG108-15 cells) of 5 to 10 mM.

B1: Vitronectin: extracellular matrix protein used as migration gradient (protein, UniProt P04004 20-478, looked up)
Vitronectin: DQESCKGRCTEGFNVDKKCQCDELCSYYQSCCTDYTAECKPQVTRGDVFTMPEDEYTVYDDGEEKNNATVHEQVGGPSLTSDLQAQSKGNPEQTPVLKPEEEAPAPEVGASKPEGIDSRPETLHPGRPQPPAEEELCSGKPFDAFTDLKNGSLFAFRGQYCYELDEKAVRPGYPKLIRDVWGIEGPIDAAFTRINCQGKTYLFKGSQYWRFEDGVLDPDYPRNISDGFDGIPDNVDAALALPAHSYSGRERVYFFKGKQYWEYQFQHQPSQEECEGSSLSAVFEHFAMMQRDSWEDIFELLFWGRTSAGTRQPQFISRDWHGVPGQVDAAMAGRIYISGMAPRPSLAKKQRFRHRNRKGYRSQRGHSRGRNQNSRRPSRATWLSLFSSEESNLGANNYDDYRMDWLVPATCEPIQSVFFFSGDKYYRVNLRTRRVDTVDPPYPRSIAQYWLGCPAPGHL
In the case of B1, the “Mean EC Migration (Fluorescence Units) + SD” value [3] is reported as 6,116 ± 185 Fluorescence Units.
